Test results reported in patent EP3717657B1, “A SYSTEM FOR ASSESSING MICROBIAL SUSCEPTIBILITY TO ANTIBIOTIC AGENTS” (Ascilion AB, priority 2017, dated 2019).

How the values were obtained:
[1] = test system: Enterococcus faecalis (ATCC 29212); experiment: Antibiotic susceptibility by glucose consumption in culture medium, blood culture bottle inoculum (Example 1); type: cell-based; conditions: for Glucose concentration t=0: 0 minutes; for Glucose concentration t=60: 60 minutes; for Glucose concentration t=120: 120 minutes; for Glucose concentration t=180: 180 minutes; for dC/dT: rate of change in glucose concentration; for Glucose concentration t=240: 240 minutes;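 for dC/dT: rate calculated between the 60 and 180 min readings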
Description: (§1) Strains of Escherichia coli (ATCC 25922), Enterococcus faecalis (ATCC 29212) and Staphylococcus aureus (ATCC 29213) were inoculated in blood culture bottles (SVA, Uppsala, Sweden) and cultivated according to the manufacturer's instructions until positive.
(§2) Medium from each blood culture bottle was diluted 1:100 with cation adjusted Mueller-Hinton broth (SVA, Uppsala, Sweden) supplemented with glucose to a concentration of 1.0 mg/mL.
(§3) Table 1: Concentrations of antibiotic agents are given in µg/mL.
(§4) Glucose concentrations were measured at 0, 60, 120, 180, and 240 minutes using a WaveSense Jazz glucometer (AgaMatrix, Inc., Salem, NH, USA) with accompanying test strips.
(§5) Susceptibility scores corresponding to MIC values were calculated as described above. A 80% threshold was applied, i.e. the lowest concentration of antibiotic that entailed a rate of change in glucose concentration that was equal to or less than 80% of the reference was selected as the Minimal Inhibitory Concentration. The rate of change was calculated between the measurements at 60 and 180 minutes.

[2] = test system: Escherichia coli (ATCC 25922); experiment: as above; type: cell-based; conditions: for Glucose concentration t=0: 0 minutes; for Glucose concentration t=60: 60 minutes; for Glucose concentration t=120: 120 minutes; for Glucose concentration t=180: 180 minutes; for dC/dT: rate of change in glucose concentration; for Glucose concentration t=240: 240 minutes;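 for dC/dT: rate calculated between the 60 and 180 min readings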
Description: as §1, §2, §3, §4, §5

## Gentamicin
[1]; E.faecalis, 80% threshold of rate of change vs reference, between 60 and 180 minutes, obtained in 4 hours
  MIC Measured: 2 µg/mL
[1]; [Ab] 0,5 µg/mL
  F=the rate of change in glucose concentration in relation to the reference: 148%
  Glucose concentration t=0: 146
  Glucose concentration t=60: 160
  Glucose concentration t=120: 138
  Glucose concentration t=180: 97
  dC/dT: 53
[1]; [Ab] 0,25 µg/mL
  F=the rate of change in glucose concentration in relation to the reference: 144%
  Glucose concentration t=0: 142
  Glucose concentration t=60: 156
  Glucose concentration t=120: 143
  Glucose concentration t=180: 87
  dC/dT: 52
[1]; [Ab] 1 µg/mL
  F=the rate of change in glucose concentration in relation to the reference: 106%
  Glucose concentration t=0: 145
  Glucose concentration t=60: 150
  Glucose concentration t=120: 138
  Glucose concentration t=180: 100
  Glucose concentration t=240: 36
  dC/dT: 38
[1]; [Ab] 2 µg/mL
  F=the rate of change in glucose concentration in relation to the reference: 75%
  Glucose concentration t=0: 147
  Glucose concentration t=60: 156
  Glucose concentration t=120: 143
  Glucose concentration t=180: 110
  Glucose concentration t=240: 75
  dC/dT: 27
[1]; [Ab] 4 µg/mL
  F=the rate of change in glucose concentration in relation to the reference: 46%
  Glucose concentration t=0: 147
  Glucose concentration t=60: 154
  Glucose concentration t=120: 151
  Glucose concentration t=180: 118
  Glucose concentration t=240: 104
  dC/dT: 17
[1]; [Ab] 8 µg/mL
  F=the rate of change in glucose concentration in relation to the reference: 14%
  Glucose concentration t=0: 143
  Glucose concentration t=60: 155
  Glucose concentration t=120: 134
  Glucose concentration t=180: 136
  Glucose concentration t=240: 140
  dC/dT: 5
[1]; [Ab] 16 µg/mL
  F=the rate of change in glucose concentration in relation to the reference: 18%
  Glucose concentration t=0: 147
  Glucose concentration t=60: 160
  Glucose concentration t=120: 152
  Glucose concentration t=180: 155
  dC/dT: 6
[1]; [Ab] 32 µg/mL
  F=the rate of change in glucose concentration in relation to the reference: 3%
  Glucose concentration t=0: 143
  Glucose concentration t=60: 151
  Glucose concentration t=180: 142
  Glucose concentration t=240: 148
  dC/dT: 1
[2]; E.coli, 80% threshold of rate of change vs reference, between 60 and 180 minutes, obtained in 4 hours
  MIC Measured: 1 µg/mL
[2]; [Ab] 0,5 µg/mL
  F=the rate of change in glucose concentration in relation to the reference: 121%
  Glucose concentration t=0: 144
  Glucose concentration t=60: 147
  Glucose concentration t=120: 147
  Glucose concentration t=180: 72
  dC/dT: 75
[2]; [Ab] 0,25 µg/mL
  F=the rate of change in glucose concentration in relation to the reference: 139%
  Glucose concentration t=0: 149
  Glucose concentration t=60: 152
  Glucose concentration t=120: 144
  Glucose concentration t=180: 58
  dC/dT: 86
[2]; [Ab] 1 µg/mL
  F=the rate of change in glucose concentration in relation to the reference: 77%
  Glucose concentration t=0: 144
  Glucose concentration t=60: 155
  Glucose concentration t=120: 148
  Glucose concentration t=180: 111
  Glucose concentration t=240: 53
  dC/dT: 48
[2]; [Ab] 2 µg/mL
  F=the rate of change in glucose concentration in relation to the reference: 9%
  Glucose concentration t=60: 161
  Glucose concentration t=120: 151
  Glucose concentration t=180: 143
  Glucose concentration t=240: 140
  dC/dT: 6
[2]; [Ab] 4 µg/mL
  F=the rate of change in glucose concentration in relation to the reference: 7%
  Glucose concentration t=0: 147
  Glucose concentration t=60: 163
  Glucose concentration t=120: 157
  Glucose concentration t=180: 148
  Glucose concentration t=240: 148
  dC/dT: 5
[2]; [Ab] 8 µg/mL
  F=the rate of change in glucose concentration in relation to the reference: 7%
  Glucose concentration t=0: 144
  Glucose concentration t=60: 156
  Glucose concentration t=120: 153
  Glucose concentration t=180: 150
  Glucose concentration t=240: 144
  dC/dT: 5
[2]; [Ab] 16 µg/mL
  F=the rate of change in glucose concentration in relation to the reference: 1%
  Glucose concentration t=0: 143
  Glucose concentration t=60: 155
  Glucose concentration t=120: 152
  Glucose concentration t=180: 149
  Glucose concentration t=240: 153
  dC/dT: 1
[2]; [Ab] 32 µg/mL
  F=the rate of change in glucose concentration in relation to the reference: 6%
  Glucose concentration t=0: 148
  Glucose concentration t=60: 158
  Glucose concentration t=120: 155
  Glucose concentration t=180: 150
  Glucose concentration t=240: 147
  dC/dT: 4
